# Assay results published in publication PMC8286840, “Identifying SARS-CoV-2 antiviral compounds by screening for small molecule inhibitors of Nsp3 papain-like protease” (Biochemical Journal, 2021).
# Counter-ions that a name gives are not always drawn. Like-named read-outs stand apart in the source and are kept apart here. Where a SMILES comes first, the peptide text is derived from it. The star is where a group is joined. Cbz = O=C(OCc1ccccc1)*; CH2F = FC*
# How the values were obtained:
# [1] = target: T1, SARS-CoV-2 PLpro (nsp3 1564–1878) (Severe acute respiratory syndrome coronavirus 2, UniProt P0DTD1); assay: biochemical; parameters: FRET-quenched peptide (Pro3) cleavage by PLpro, 10 min pre-incubation, slope over 20 min, normalised to no-compound control; details: low concentration screen, read-out: % of control remaining
# [2] = target: T1, SARS-CoV-2 PLpro (nsp3 1564–1878); assay: biochemical; parameters: FRET-quenched peptide (Pro3) cleavage by PLpro, 10 min pre-incubation, slope over 20 min, normalised to no-compound control; details: high concentration screen, read-out: % of control remaining
compound,measurement,setting,value
C[C@H]1CC[C@@H]2[C@@H](C)[C@H]3[C@H](C[C@H]4[C@@H]5CC=C6C[C@@H](O[C@@H]7O[C@H](CO)[C@H](O)[C@H](O[C@@H]8O[C@H](CO)[C@@H](O)[C@H](O)[C@H]8O)[C@H]7O[C@H]7O[C@@H](C)[C@H](O)[C@@H](O)[C@H]7O)CC[C@]6(C)[C@H]5CC[C@]34C)N2C1 (racemic),remaining activity at 1.25 µM,[1]; Well no.=3465,105%
same,remaining activity at 3.75 µM,[2]; Well no.=3465,105%
CCCN1CCC[C@@H]2Cc3n[nH]cc3C[C@H]21 (racemic),remaining activity at 1.25 µM,[1]; Well no.=1461,91%
same,remaining activity at 3.75 µM,[2]; Well no.=1461,88.7%
CCS(=O)(=O)c1cccc(-c2cc(C(=O)NC3CCN(C)CC3)c(C)c3[nH]c4ncc(C)cc4c23)c1 [TAK-901],remaining activity at 1.25 µM,[1]; Well no.=4691,96.9%
same,remaining activity at 3.75 µM,[2]; Well no.=4691,100%
CCN(CC)CCS(=O)(=O)[C@@H]1CCN2C(=O)c3coc(n3)CC(=O)C[C@H](O)/C=C(C)/C=C/CNC(=O)/C=C/[C@@H](C)[C@@H](C(C)C)OC(=O)[C@@H]12 [Dalfopristin],remaining activity at 1.25 µM,[1]; Well no.=7876,95%
same,remaining activity at 3.75 µM,[2]; Well no.=7876,93.8%
Cc1c(Cc2ccc3ccccc3n2)c2cc(F)ccc2n1CC(=O)O [OC000459],remaining activity at 1.25 µM,[1]; Well no.=7765,108%
same,remaining activity at 3.75 µM,[2]; Well no.=7765,105%
CN(c1ccccc1CNc1nc(Nc2ccc3c(c2)CC(=O)N3)ncc1C(F)(F)F)S(C)(=O)=O [PF431396],remaining activity at 1.25 µM,[1]; Well no.=3033,99.3%
same,remaining activity at 3.75 µM,[2]; Well no.=3033,100%
O=C(CCc1ccc(O)cc1)c1c(O)cc(O)cc1O [Phloretin],remaining activity at 1.25 µM,[1]; Well no.=1397,102%
same,remaining activity at 1.25 µM,[1]; Well no.=3821,95.3%
same,remaining activity at 3.75 µM,[2]; Well no.=1397,102%
same,remaining activity at 3.75 µM,[2]; Well no.=3821,94.8%
CCN1CCN(c2cc3c(cc2F)c(=O)c(C(=O)O)cn3C2CC2)CC1 [Enrofloxacin],remaining activity at 1.25 µM,[1]; Well no.=2028,104%
same,remaining activity at 3.75 µM,[2]; Well no.=2028,104%
CC(CCc1ccc(O)cc1)NCCc1ccc(O)c(O)c1 (stereo not shown) [Dobutamine hydrochloride],remaining activity at 1.25 µM,[1]; Well no.=587,97.5%
same,remaining activity at 3.75 µM,[2]; Well no.=587,99.5%
CCCCC[C@H](O)/C=C/[C@H]1[C@H](O)CC(=O)[C@@H]1CCCCCCC(=O)O [Prostaglandin E1],remaining activity at 1.25 µM,[1]; Well no.=2192,92.3%
same,remaining activity at 1.25 µM,[1]; Well no.=3090,95.3%
same,remaining activity at 1.25 µM,[1]; Well no.=4473,103%
same,remaining activity at 1.25 µM,[1]; Well no.=4475,93.1%
same,remaining activity at 1.25 µM,[1]; Well no.=8109,91.2%
same,remaining activity at 3.75 µM,[2]; Well no.=2192,91.2%
same,remaining activity at 3.75 µM,[2]; Well no.=3090,97%
same,remaining activity at 3.75 µM,[2]; Well no.=4473,101%
same,remaining activity at 3.75 µM,[2]; Well no.=4475,94.7%
same,remaining activity at 3.75 µM,[2]; Well no.=8109,95%
Clc1ccc(COC(Cn2ccnc2)c2ccc(Cl)cc2Cl)c(Cl)c1 (stereo not shown) [Miconazole],remaining activity at 1.25 µM,[1]; Well no.=1965,86.9%
same,remaining activity at 3.75 µM,[2]; Well no.=1965,92.2%
Cc1cccc(C)c1NC1=NCCCS1 [Xylazine],remaining activity at 1.25 µM,[1]; Well no.=1652,103%
same,remaining activity at 3.75 µM,[2]; Well no.=1652,106%
CC12CC3CC(C)(C1)CC(N)(C3)C2 [Memantine.HCl],remaining activity at 1.25 µM,[1]; Well no.=1887,94.9%
same,remaining activity at 3.75 µM,[2]; Well no.=1887,95.2%
CCCCCC/C=C/CCCCCCCCC(=O)O [10(E)-Heptadecenoic acid],remaining activity at 1.25 µM,[1]; Well no.=4312,104%
same,remaining activity at 3.75 µM,[2]; Well no.=4312,96.7%
C[C@H]1[C@H](NC(=O)/C(=N\OC(C)(C)C(=O)O)c2csc(N)n2)C(=O)N1S(=O)(=O)O [Aztreonam],remaining activity at 1.25 µM,[1]; Well no.=2169,103%
same,remaining activity at 3.75 µM,[2]; Well no.=2169,102%
CC[C@H](C)[C@H](NC(=O)OCc1ccccc1)C(=O)N[C@@H](CCC(=O)OC)C(=O)N[C@H](C(=O)N[C@@H](CC(=O)OC)C(=O)CF)[C@@H](C)O [Z-IETD-FMK] (Cbz-IE(OMe)TD(OMe)-CH2F),remaining activity at 1.25 µM,[1]; Well no.=8262,98.1%
same,remaining activity at 3.75 µM,[2]; Well no.=8262,96.2%
CCCC(CCC)C(=O)O [Valproic acid],remaining activity at 1.25 µM,[1]; Well no.=1758,98.8%
same,remaining activity at 3.75 µM,[2]; Well no.=1758,100%
CC(C)[C@H](N)C(=O)OCC(CO)OCn1cnc2c(=O)nc(N)[nH]c21 (stereo partly shown) [Valganciclovir (hydrochloride)],remaining activity at 1.25 µM,[1]; Well no.=8044,94.6%
same,remaining activity at 3.75 µM,[2]; Well no.=8044,93.4%
"COc1ccc(CC[C@H]2CCC[C@@H](CCc3ccc(OC)cc3)N2C[C@@H](O)CO)cc1 [(R)-3-((2R,6S)-2,6-bis(4-methoxyphenethyl)piperidin-1-yl)propane-1,2-diol hydrochloride]",remaining activity at 1.25 µM,[1]; Well no.=5614,101%
same,remaining activity at 3.75 µM,[2]; Well no.=5614,102%
Cc1cn[nH]c1 [4-Methylpyrazole hydrochloride],remaining activity at 1.25 µM,[1]; Well no.=776,98.4%
same,remaining activity at 3.75 µM,[2]; Well no.=776,99.2%
C=CCN1CC[C@]23CCCC[C@H]2[C@H]1Cc1ccc(O)cc13 [Levallorphan tartrate],remaining activity at 1.25 µM,[1]; Well no.=1012,99.1%
same,remaining activity at 3.75 µM,[2]; Well no.=1012,99.9%
O=C(NCCCCN1CCN(c2cccc(Cl)c2Cl)CC1)c1ccc2c(c1)Cc1ccccc1-2 [NGB 2904 hydrochloride],remaining activity at 1.25 µM,[1]; Well no.=5407,97.8%
same,remaining activity at 3.75 µM,[2]; Well no.=5407,101%
N[C@@H](CCC(=O)O)C(=O)N[C@@H](Cc1c[nH]c2ccccc12)C(=O)O [Oglufanide] (H-Glu-Trp-OH),remaining activity at 1.25 µM,[1]; Well no.=8604,107%
same,remaining activity at 3.75 µM,[2]; Well no.=8604,101%
CCC(C)C(=O)C(=O)O (stereo not shown) [3-Methyl-2-oxovaleric acid],remaining activity at 1.25 µM,[1]; Well no.=6977,100%
same,remaining activity at 3.75 µM,[2]; Well no.=6977,101%
"O=c1cc(-c2ccc(O)c(O[C@@H]3O[C@H](CO)[C@@H](O)[C@H](O)[C@H]3O)c2)oc2cc(O[C@@H]3O[C@H](CO)[C@@H](O)[C@H](O)[C@H]3O)cc(O)c12 [Luteolin-3',7-diglucoside]",remaining activity at 1.25 µM,[1]; Well no.=3309,97.1%
same,remaining activity at 3.75 µM,[2]; Well no.=3309,95.6%
Cc1c(N)nc([C@H](CC(N)=O)NC[C@H](N)C(N)=O)nc1C(=O)N[C@H](C(=O)N[C@H](C)[C@@H](O)[C@H](C)C(=O)N[C@H](C(=O)NCCc1nc(-c2nc(C(=O)NCCC[S+](C)C)cs2)cs1)[C@@H](C)O)[C@@H](OC1OC(CO)C(O)C(O)C1OC1OC(CO)C(O)C(OC(N)=O)C1O)c1cnc[nH]1 (stereo partly shown) [Bleomycin],remaining activity at 1.25 µM,[1]; Well no.=1890,89.5%
same,remaining activity at 3.75 µM,[2]; Well no.=1890,91.9%
N#Cc1cc(-c2n[nH]c(-c3ccncc3)n2)ccn1 [Topiroxostat],remaining activity at 1.25 µM,[1]; Well no.=8440,96.2%
same,remaining activity at 3.75 µM,[2]; Well no.=8440,97.1%
CCOc1ccc(Cc2cc([C@@H]3O[C@H](CO)[C@@H](O)[C@H](O)[C@H]3O)ccc2Cl)cc1 [Dapagliflozin],remaining activity at 1.25 µM,[1]; Well no.=5291,93.4%
same,remaining activity at 3.75 µM,[2]; Well no.=5291,95.8%
CC(Cc1ccccc1)(NC(=O)CN)c1ccccc1 (stereo not shown) [Remacemide hydrochloride],remaining activity at 1.25 µM,[1]; Well no.=5380,99%
same,remaining activity at 3.75 µM,[2]; Well no.=5380,94.8%
N[C@H](C(=O)O)[C@@H]1CC(Cl)=NO1 [Acivicin],remaining activity at 1.25 µM,[1]; Well no.=3483,96.9%
same,remaining activity at 3.75 µM,[2]; Well no.=3483,97.4%
